Here are results for 22 molecules from patent US10301280B2 (Plexxikon Inc., priority 2012, dated 2019).

The structures appear in SMILES notation.

One assay addresses c-kit kinase (Homo sapiens (Human), UniProt P10721). Briefly: c-Kit biochemical assay (AlphaScreen). As to conditions: c-kit biochemical inhibitory activity. The protocol: Assays for biochemical cell-based activity of c-kit kinase are known in the art, for example, as described in U.S. Pat. Nos. 7,498,342 and 7,846,941, the disclosures of which are hereby incorporated by reference as it relates to such assays. The c-kit (or kinase domain thereof) is an active kinase in AlphaScreen. IC50 values are determined with respect to inhibition of c-Kit kinase activity, where inhibition of phosphorylation of a peptide substrate is measured as a function of compound concentration. Compounds to be tested were dissolved in DMSO to a concentration of 20 mM. These were diluted 30 μl into 120 μl of DMSO (4 mM) and 1 μl was added to an assay plate. These were then serially diluted 1:3 (50 μl to 100 μl DMSO) for a total of 8 points. Plates were prepared such that each kinase reaction is 20 μl in 1× kinase buffer (50 mM HEPES, pH 7.2, 5 mM MgCl2, 5 mM MnCl2, 0.01% NP-40, 0.2% BSA), 5% DMSO and 10 µM ATP. Substrate was 100 nM biotin-(E4Y)3 (Open Source Biotech, Inc.). C-kit kinase was at 0.1 ng per sample. After incubation of the kinase reaction for 1 hour at room temperature, 5 μl of donor beads (Streptavidin coated beads (Perkin Elmer Life Science) final concentration 1 μg/ml) in stop buffer (50 mM EDTA in 1× kinase buffer) was added, the sample was mixed and incubated for 20 minutes at room temperature before adding 5 μl of acceptor beads (PY20 coated beads (Perkin Elmer Life Science) final concentration 1 μg/ml) in stop buffer. The samples were incubated for 60 minutes at room temperature and the signal per well was read on AlphaQuest reader. Phosphorylated substrate results in binding of the PY20 antibody and association of the donor and acceptor beads such that signal correlates with kinase activity. The signal vs. compound concentration was used to determine the IC50.
Compounds were also tested using a similar assay with a 10-fold higher ATP concentration. For these samples, compounds to be tested were dissolved in DMSO to a concentration of 20 mM. These were diluted 30 μl into 120 μl of DMSO (4 mM) and 1 μl was added to an assay plate. These were then serially diluted 1:3 (50 μl to 100 μl DMSO) for a total of 8 points. Plates were prepared such that each kinase reaction is 20 μl in 1× kinase buffer (25 mM HEPES, pH 7.5, 2 mM MgCl2, 2 mM MnCl2, 0.01% Tween-20, 1 mM DTT, and 0.001% BSA), 5% DMSO and 100 µM ATP. Substrate was 30 nM biotin-(E4Y)10 (Upstate Biotech, Cat#12-440). C-kit kinase was at 1 ng per sample. After incubation of the kinase reaction for 1 hour at room temperature, 5 μl of donor beads (Streptavidin coated beads (Perkin Elmer Life Science) final concentration 10 μg/ml) in stop buffer (25 mM HEPES pH 7.5, 100 mM EDTA, 0.3% BSA) was added, the sample was mixed and incubated for 20 minutes at room temperature before adding 5 μl of acceptor beads (PY20 coated beads (Perkin Elmer Life Science) final concentration 10 μg/ml) in stop buffer. The samples were incubated for 60 minutes at room temperature and the signal per well was read on AlphaQuest or Envision reader (Perkin Elmer Life Science). Phosphorylated substrate results in binding of the PY20 antibody and association of the donor and acceptor beads such that signal correlates with kinase activity. The signal vs. compound concentration was used to determine the IC50.
The c-kit enzyme used in the above assay was either obtained from Cell Signaling Technology (Cat. #7754) or was prepared as follows: A plasmid encoding kit (DNA and encoded protein sequences shown below) was engineered using common polymerase chain reaction (PCR) methods. Complementary DNA cloned from various human tissues were purchased from Invitrogen, and these were used as substrates in the PCR reactions. Specific custom synthetic oligonucleotide primers were designed to initiate the PCR product, and also to provide the appropriate restriction enzyme cleavage sites for ligation with the plasmids. […]
Background: In Alpha technology, singlet oxygen from a donor bead excites a nearby acceptor bead.

For assay [1], the system named is BaF3-FL KIT D816V or BaF3-FL KIT V560G/D816V cell line. The assay is described as follows: Cell-based assays of c-Kit mutant kinase activity (cell growth, ATPlite). As to conditions: at least one of the c-kit cell assays of Example 26. In a few lines: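 BaF3 cells dependent on full-length human KIT (D816V or V560G/D816V) seeded at 1×10^4 cells/well in RPMI with 10% FBS. Eight-point 1:3 dilutions from 10 μM top final (0.2% DMSO), 3 days at 37° C., 5% CO2. ATPlite luminescence gave IC50.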
(Cellular ATP, detected with luciferase, serves as a proxy for viable cell number.)

Chain of c-kit kinase (P10721 26-976): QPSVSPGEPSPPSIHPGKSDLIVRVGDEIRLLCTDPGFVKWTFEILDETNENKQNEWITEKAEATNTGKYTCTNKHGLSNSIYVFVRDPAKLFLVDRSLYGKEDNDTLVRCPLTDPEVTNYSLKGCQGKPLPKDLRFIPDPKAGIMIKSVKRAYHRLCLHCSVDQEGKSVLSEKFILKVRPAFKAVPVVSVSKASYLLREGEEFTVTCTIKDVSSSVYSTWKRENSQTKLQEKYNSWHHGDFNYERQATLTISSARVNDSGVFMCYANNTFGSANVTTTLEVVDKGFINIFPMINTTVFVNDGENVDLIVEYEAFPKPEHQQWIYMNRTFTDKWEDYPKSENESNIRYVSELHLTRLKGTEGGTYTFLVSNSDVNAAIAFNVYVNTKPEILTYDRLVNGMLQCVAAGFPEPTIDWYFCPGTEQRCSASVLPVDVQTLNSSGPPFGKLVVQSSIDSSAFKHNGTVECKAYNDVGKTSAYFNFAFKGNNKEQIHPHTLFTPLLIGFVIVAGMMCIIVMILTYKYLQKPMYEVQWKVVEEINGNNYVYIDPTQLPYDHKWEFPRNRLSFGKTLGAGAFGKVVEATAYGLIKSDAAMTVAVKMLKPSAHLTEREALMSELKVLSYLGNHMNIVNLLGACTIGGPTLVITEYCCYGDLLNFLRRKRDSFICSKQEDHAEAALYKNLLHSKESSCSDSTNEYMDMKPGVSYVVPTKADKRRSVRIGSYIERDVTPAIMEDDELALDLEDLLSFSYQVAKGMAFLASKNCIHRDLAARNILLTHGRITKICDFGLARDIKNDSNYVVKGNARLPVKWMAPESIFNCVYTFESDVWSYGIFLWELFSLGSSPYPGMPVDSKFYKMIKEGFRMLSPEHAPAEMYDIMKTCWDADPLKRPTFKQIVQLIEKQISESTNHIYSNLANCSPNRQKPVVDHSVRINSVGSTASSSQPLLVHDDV

Regarding `Cc1n[nH]c(C(=O)Nc2ccc(Nc3ccccc3)nc2)c1C` [P-2045, N-(6-anilino-3-pyridyl)-3,4-dimethyl-1H-pyrazole-5-carboxamide], the IC50 is 10 to 200 µM against c-kit kinase and below 10 µM in assay [1].
On to `O=C(Nc1cnc2[nH]c(-c3ccc(F)cc3)cc2c1)c1n[nH]c2ccccc12` [P-2046, N-[2-(4-fluorophenyl)-1H-pyrrolo[2,3-b]pyridin-5-yl]-1H-indazole-3-carboxamide], for which the figures for the IC50 (on c-kit kinase; in assay [1]) were 10 to 200 µM and below 10 µM, respectively.
With `O=C(Nc1cnc2[nH]c(-c3ccc(F)cc3)cc2c1)c1n[nH]c2c1CCCC2` [P-2047, N-[2-(4-fluorophenyl)-1H-pyrrolo[2,3-b]pyridin-5-yl]-4,5,6,7-tetrahydro-1H-indazole-3-carboxamide], the IC50 is 10 to 200 µM against c-kit kinase and below 10 µM in assay [1].
In the case of `Cc1n[nH]c(C(=O)Nc2cnc3[nH]c(-c4cnn(C5CCNCC5)c4)cc3c2)c1C` [P-2048, 3,4-dimethyl-N-[2-[1-(4-piperidyl)pyrazol-4-yl]-1H-pyrrolo[2,3-b]pyridin-5-yl]-1H-pyrazole-5-carboxamide], the values for the IC50 (on c-kit kinase; in assay [1]) were 0.0001 to 1 µM and below 10 µM, respectively.
In the same order, the values of `Cc1n[nH]c(C(=O)Nc2cnc3[nH]c(Cl)cc3c2)c1C` [P-2049, N-(2-chloro-1H-pyrrolo[2,3-b]pyridin-5-yl)-3,4-dimethyl-1H-pyrazole-5-carboxamide] are 10 to 200 µM and below 10 µM.
Take `CCNS(=O)(=O)c1cccc(Nc2ncc(NC(=O)c3[nH]nc(C)c3C)cn2)c1` [P-2050, N-[2-[3-(ethylsulfamoyl)anilino]pyrimidin-5-yl]-3,4-dimethyl-1H-pyrazole-5-carboxamide]: the IC50 was 10 to 200 µM against c-kit kinase and below 10 µM in assay [1].
For the molecule `Cc1n[nH]c(C(=O)Nc2cnc(Nc3cccc(N4CCOCC4)c3)nc2)c1C` [P-2051, 3,4-dimethyl-N-[2-(3-morpholinoanilino)pyrimidin-5-yl]-1H-pyrazole-5-carboxamide], the results for the IC50 (against c-kit kinase; in assay [1]) were 0.0001 to 1 µM and below 10 µM, respectively.
Take `CCCS(=O)(=O)Nc1cccc(Nc2ncc(NC(=O)c3[nH]nc(C)c3C)cn2)c1` [P-2052, 3,4-dimethyl-N-[2-[3-(propylsulfonylamino)anilino]pyrimidin-5-yl]-1H-pyrazole-5-carboxamide]: the IC50 against c-kit kinase is 1 to 10 µM; in assay [1], below 10 µM.
As to `Cc1n[nH]c(C(=O)Nc2cnc(Nc3cccc(NS(=O)(=O)c4ccccc4)c3)nc2)c1C` [P-2053, N-[2-[3-(benzenesulfonamido)anilino]pyrimidin-5-yl]-3,4-dimethyl-1H-pyrazole-5-carboxamide], the figures for the IC50 (against c-kit kinase; in assay [1]) were 1 to 10 µM and below 10 µM, respectively.
In the same order, the values of `CNC(=O)c1cccc(Nc2ncc(NC(=O)c3[nH]nc(C)c3C)cn2)c1` [P-2054, 3,4-dimethyl-N-[2-[3-(methylcarbamoyl)anilino]pyrimidin-5-yl]-1H-pyrazole-5-carboxamide] are 1 to 10 µM and below 10 µM.
In the same order, the values of `CCOC(=O)Nc1cccc(Nc2ncc(NC(=O)c3[nH]nc(C)c3C)cn2)c1` [P-2055, ethyl N-[3-[[5-[(3,4-dimethyl-1H-pyrazole-5-carbonyl)amino]pyrimidin-2-yl]amino]phenyl]carbamate] are 1 to 10 µM and below 10 µM.
With `Cc1n[nH]c(C(=O)Nc2cnc3[nH]c(C4=CCN(S(C)(=O)=O)CC4)cc3c2)c1Cl` [P-2057, 4-chloro-3-methyl-N-[2-(1-methylsulfonyl-3,6-dihydro-2H-pyridin-4-yl)-1H-pyrrolo[2,3-b]pyridin-5-yl]-1H-pyrazole-5-carboxamide], the IC50 was 0.0001 to 1 µM at c-kit kinase and below 10 µM in assay [1].
In the same order, the values of `Cc1cc(C(=O)Nc2cnc3[nH]c(N4CCOCC4)cc3c2)[nH]n1` [P-2058, 3-methyl-N-(2-morpholino-1H-pyrrolo[2,3-b]pyridin-5-yl)-1H-pyrazole-5-carboxamide] are 10 to 200 µM and below 10 µM.
In the same order, the values of `Cc1n[nH]c(C(=O)Nc2cnc3[nH]c(-c4cnc(N5CCN(C)CC5)nc4)cc3c2)c1C` [P-2160, 3,4-dimethyl-N-[2-[2-(4-methylpiperazin-1-yl)pyrimidin-5-yl]-1H-pyrrolo[2,3-b]pyridin-5-yl]-1H-pyrazole-5-carboxamide] are 1 to 10 µM and below 10 µM.
In the same order, the values of `Cc1n[nH]c(C(=O)Nc2cnc3[nH]nc(-c4cccc(N5CCN(C(=O)OC(C)(C)C)CC5)c4)c3c2)c1C` [P-2162, tert-butyl 4-[3-[5-[(3,4-dimethyl-1H-pyrazole-5-carbonyl)amino]-1H-pyrazolo[3,4-b]pyridin-3-yl]phenyl]piperazine-1-carboxylate] are 0.0001 to 1 µM and below 10 µM.
For `Cc1n[nH]c(C(=O)Nc2cnc3[nH]c(-c4ccnc(C(C)C)c4)cc3c2)c1C` [P-2163, N-[2-(2-isopropyl-4-pyridyl)-1H-pyrrolo[2,3-b]pyridin-5-yl]-3,4-dimethyl-1H-pyrazole-5-carboxamide], the IC50 at c-kit kinase was 0.0001 to 1 µM; in assay [1] it was below 10 µM.
In the same order, the values of `[2H]c1c([2H])c([2H])c(-c2cc3cc(NC(=O)c4[nH]nc(C)c4C)cnc3[nH]2)c([2H])c1[2H]` [P-2164, 3,4-dimethyl-N-[2-(2,3,4,5,6-pentadeuteriophenyl)-1H-pyrrolo[2,3-b]pyridin-5-yl]-1H-pyrazole-5-carboxamide] are 1 to 10 µM and below 10 µM.
With `Cc1n[nH]c(C(=O)Nc2cnc3[nH]c(-c4c(C)nn(C)c4C)cc3c2)c1C` [P-2165, 3,4-dimethyl-N-[2-(1,3,5-trimethylpyrazol-4-yl)-1H-pyrrolo[2,3-b]pyridin-5-yl]-1H-pyrazole-5-carboxamide], the IC50 was 0.0001 to 1 µM on c-kit kinase and below 10 µM in assay [1].
In the same order, the values of `Cc1n[nH]c(C(=O)Nc2cnc3[nH]nc(-c4cccc(N5CCNCC5)c4)c3c2)c1C` [P-2166, 3,4-dimethyl-N-[3-(3-piperazin-1-ylphenyl)-1H-pyrazolo[3,4-b]pyridin-5-yl]-1H-pyrazole-5-carboxamide] are 0.0001 to 1 µM and below 10 µM.
Consider `Cc1n[nH]c(C(=O)Nc2cnc3[nH]c(-c4c(C)n[nH]c4C)cc3c2)c1C` [P-2167, N-[2-(3,5-dimethyl-1H-pyrazol-4-yl)-1H-pyrrolo[2,3-b]pyridin-5-yl]-3,4-dimethyl-1H-pyrazole-5-carboxamide], for which the IC50 at c-kit kinase was 0.0001 to 1 µM; in assay [1] it was below 10 µM.
On the same counts, the results for `Cc1nn(C2COC2)cc1-c1cc2cc(NC(=O)c3[nH]nc(C)c3C)cnc2[nH]1` [P-2168, 3,4-dimethyl-N-[2-[3-methyl-1-(oxetan-3-yl)pyrazol-4-yl]-1H-pyrrolo[2,3-b]pyridin-5-yl]-1H-pyrazole-5-carboxamide] are 0.0001 to 1 µM and below 10 µM.
In the same order, the values of `Cc1n[nH]c(C(=O)Nc2cnc3[nH]c(-c4ccc(F)c(-c5nn[nH]n5)c4)cc3c2)c1C` [P-2174, N-[2-[4-fluoro-3-(2H-tetrazol-5-yl)phenyl]-1H-pyrrolo[2,3-b]pyridin-5-yl]-3,4-dimethyl-1H-pyrazole-5-carboxamide] are 1 to 10 µM and below 10 µM.

The term IC50 denotes the point on the concentration scale where inhibition reaches its midpoint. The low end stands for inhibition by little substance, the high end for a need for much substance.
